Data reported in the NIST ThermoML archive (doi:10.1016/j.fluid.2013.06.041).
± gives the expanded uncertainty stated by the source.

Experiments:
[1] = molar heat capacity at constant pressure; conditions: 101.33 kPa, Liquid, Small sample (50 mg) DSC
[2] = 101.33 kPa, Liquid, Vibrating tube method
[3] = xn = mol fraction of the nth substance listed; conditions: 101 kPa, Liquid, Small sample (50 mg) DSC

OCCO [1,2-ethanediol]
Conditions	mass density, 283.15 K [kg/m3]	mass density, 293.15 K [kg/m3]	mass density, 303.15 K [kg/m3]	mass density, 313.15 K [kg/m3]	molar heat capacity at constant pressure, 283.15 K [J/K/mol]	molar heat capacity at constant pressure, 293.15 K [J/K/mol]	molar heat capacity at constant pressure, 298.15 K [J/K/mol]	molar heat capacity at constant pressure, 303.15 K [J/K/mol]	molar heat capacity at constant pressure, 313.15 K [J/K/mol]
[1]	–	–	–	–	145.38 ± 6.2	148.53 ± 6.3	150.22 ± 6.4	151.96 ± 6.4	155.49 ± 6.6
[2]	1120.39 ± 0.22	1113.34 ± 0.22	1106.23 ± 0.21	1099.07 ± 0.21	–	–	–	–	–

OCCO [1,2-ethanediol] + O
excess molar heat capacity [J/K/mol], [3]
Conditions	283.15 K	293.15 K	298.15 K	303.15 K	313.15 K
x1 = 0.00991	0.43 ± 0.43	0.3 ± 0.43	0.26 ± 0.43	0.26 ± 0.43	0.37 ± 0.43
x1 = 0.02619	0.87 ± 0.43	0.79 ± 0.43	0.76 ± 0.43	0.75 ± 0.43	0.74 ± 0.43
x1 = 0.04637	1.03 ± 0.43	1.25 ± 0.43	1.33 ± 0.43	1.39 ± 0.43	1.5 ± 0.43
x1 = 0.07516	1.32 ± 0.43	1.72 ± 0.43	1.85 ± 0.43	1.96 ± 0.43	2.17 ± 0.44
x1 = 0.09514	–	–	1.99 ± 0.43	2.2 ± 0.44	2.5 ± 0.44
x1 = 0.1016	1.26 ± 0.43	–	–	–	–
x1 = 0.1245	1.16 ± 0.43	1.91 ± 0.43	2.17 ± 0.44	2.38 ± 0.44	2.76 ± 0.44
x1 = 0.1491	0.94 ± 0.43	1.76 ± 0.43	2.08 ± 0.43	2.35 ± 0.44	2.82 ± 0.44
x1 = 0.1731	0.76 ± 0.43	1.68 ± 0.43	2.01 ± 0.43	2.29 ± 0.44	–
x1 = 0.2203	–	–	–	–	2.62 ± 0.44
x1 = 0.2903	–	0.61 ± 0.43	1.14 ± 0.43	1.6 ± 0.43	2.42 ± 0.44
x1 = 0.4076	–	0.05 ± 0.42	0.54 ± 0.43	0.98 ± 0.43	1.82 ± 0.43
x1 = 0.4641	–	–	0.35 ± 0.43	0.78 ± 0.43	1.58 ± 0.43
x1 = 0.6066	–	–	0.02	0.035	0.96 ± 0.43
x1 = 0.6959	–	–	–	0.15 ± 0.43	0.63 ± 0.43
x1 = 0.804	–	–	–	–	0.18 ± 0.43

CCCCC(O)CO (configuration not stated) [1,2-hexanediol]
Conditions	mass density, 283.15 K [kg/m3]	mass density, 293.15 K [kg/m3]	mass density, 298.15 K [kg/m3]	mass density, 303.15 K [kg/m3]	mass density, 313.15 K [kg/m3]	molar heat capacity at constant pressure, 283.15 K [J/K/mol]	molar heat capacity at constant pressure, 293.15 K [J/K/mol]	molar heat capacity at constant pressure, 298.15 K [J/K/mol]	molar heat capacity at constant pressure, 303.15 K [J/K/mol]	molar heat capacity at constant pressure, 313.15 K [J/K/mol]
[1]	–	–	–	–	–	277.11 ± 12	287.76 ± 12	293.1 ± 12	298.44 ± 13	309.15 ± 13
[2]	958.85 ± 0.79	951.73 ± 0.78	948.1 ± 0.78	944.44 ± 0.77	937.06 ± 0.76	–	–	–	–	–

CCCCC(O)CO (configuration not stated) [1,2-hexanediol] + O
excess molar heat capacity [J/K/mol], [3]
Conditions	283.15 K	293.15 K	298.15 K	303.15 K	313.15 K
x1 = 0.04991	–	0.35 ± 0.43	–	1.74 ± 0.43	2.85 ± 0.44
x1 = 0.09952	–	–	0.87 ± 0.43	1.95 ± 0.43	3.92 ± 0.45
x1 = 0.1989	–	0.68 ± 0.43	1.97 ± 0.43	3.16 ± 0.44	5.28 ± 0.45
x1 = 0.2988	–	1.31 ± 0.43	2.52 ± 0.44	3.76 ± 0.44	5.95 ± 0.46
x1 = 0.4015	–	0.89 ± 0.43	2.19 ± 0.44	3.35 ± 0.44	5.35 ± 0.46
x1 = 0.4841	–	1.13 ± 0.43	2.22 ± 0.44	3.15 ± 0.44	4.97 ± 0.45
x1 = 0.5535	–	1.45 ± 0.43	2.33 ± 0.44	3.16 ± 0.44	–
x1 = 0.6972	–	0.9 ± 0.43	1.63 ± 0.43	2.27 ± 0.44	3.48 ± 0.44
x1 = 0.7927	–	0.92 ± 0.43	1.26 ± 0.43	1.52 ± 0.43	2.27 ± 0.44
x1 = 0.8822	–	0.82 ± 0.43	0.94 ± 0.43	0.89 ± 0.43	1.65 ± 0.43
x1 = 0.9437	0.04	0.68 ± 0.43	0.47 ± 0.43	0.22 ± 0.43	0.62 ± 0.43

CC(O)CO (configuration not stated) [1,2-propanediol]
Conditions	mass density, 283.15 K [kg/m3]	mass density, 293.15 K [kg/m3]	mass density, 298.15 K [kg/m3]	mass density, 303.15 K [kg/m3]	mass density, 313.15 K [kg/m3]	molar heat capacity at constant pressure, 283.15 K [J/K/mol]	molar heat capacity at constant pressure, 293.15 K [J/K/mol]	molar heat capacity at constant pressure, 298.15 K [J/K/mol]	molar heat capacity at constant pressure, 303.15 K [J/K/mol]	molar heat capacity at constant pressure, 313.15 K [J/K/mol]
[1]	–	–	–	–	–	183.26 ± 7.8	188.62 ± 8	191.29 ± 8.1	193.95 ± 8.2	199.25 ± 8.5
[2]	1043.89 ± 0.22	1036.58 ± 0.22	1032.86 ± 0.22	1029.1 ± 0.22	1021.48 ± 0.22	–	–	–	–	–

OCCCCO [1,4-butanediol]
Conditions	mass density, 283.15 K [kg/m3]	mass density, 293.15 K [kg/m3]	mass density, 298.15 K [kg/m3]	mass density, 303.15 K [kg/m3]	mass density, 313.15 K [kg/m3]	molar heat capacity at constant pressure, 283.15 K [J/K/mol]	molar heat capacity at constant pressure, 293.15 K [J/K/mol]	molar heat capacity at constant pressure, 298.15 K [J/K/mol]	molar heat capacity at constant pressure, 303.15 K [J/K/mol]	molar heat capacity at constant pressure, 313.15 K [J/K/mol]
[1]	–	–	–	–	–	195.51 ± 8.3	200.85 ± 8.5	203.73 ± 8.6	206.71 ± 8.8	212.96 ± 9
[2]	1022.21 ± 0.3	1016.11 ± 0.3	1013.06 ± 0.3	1009.99 ± 0.29	1003.85 ± 0.29	–	–	–	–	–

OCCCO [propan-1,3-diol]
Conditions	mass density, 283.15 K [kg/m3]	mass density, 293.15 K [kg/m3]	mass density, 298.15 K [kg/m3]	mass density, 303.15 K [kg/m3]	mass density, 313.15 K [kg/m3]	molar heat capacity at constant pressure, 283.15 K [J/K/mol]	molar heat capacity at constant pressure, 293.15 K [J/K/mol]	molar heat capacity at constant pressure, 298.15 K [J/K/mol]	molar heat capacity at constant pressure, 303.15 K [J/K/mol]	molar heat capacity at constant pressure, 313.15 K [J/K/mol]
[1]	–	–	–	–	–	169.44 ± 7.2	174.37 ± 7.4	176.91 ± 7.5	179.52 ± 7.6	185.09 ± 7.9
[2]	1059.14 ± 0.96	1052.85 ± 0.95	1049.68 ± 0.94	1046.51 ± 0.93	1040.12 ± 0.92	–	–	–	–	–
